Target: VHL (Homo sapiens (Human), UniProt P40337)
Test: VHL fluorescence polarization (FP) competition assay
Type: binding

Row | IC50 (10% in DMSO) | IC50 (1% in DMSO) | IC50 (0.25% in DMSO) | VHL FP Assay IC50 (1% in DMSO) | VHL FP Assay IC50 (10% in DMSO) | Compound
1 | – | 47.3 µM | – | – | – | CC(C)[C@@H](C(=O)N1C[C@H](O)C[C@H]1C(=O)NCc1ccc(C2CCC2)cc1)N1Cc2ccccc2C1=O [Example 114, (2S,4R)—N-(4-cyclobutylbenzyl)-4-hydroxy-1-((S)-3-methyl-2-(1-oxoisoindolin-2-yl)butanoyl)pyrrolidine-2-carboxamide]
2 | – | > 10 µM | – | – | – | CC(C)[C@@H](C(=O)N1C[C@H](O)C[C@H]1C(=O)NCc1ccc(C2CC2)cc1)N1Cc2ccccc2C1=O [Example 113, (2S,4R)—N-(4-cyclopropylbenzyl)-4-hydroxy-1-((S)-3-methyl-2-(1-oxoisoindolin-2-yl)butanoyl)pyrrolidine-2-carboxamide]
3 | – | > 100 µM | – | – | – | CC(C)[C@@H](C(=O)N1C[C@H](O)C[C@H]1C(=O)NCc1ccc(N2CCOCC2)cc1)N1Cc2ccccc2C1=O [Example 91, (2S,4R)-4-hydroxy-1-((S)-3-methyl-2-(1-oxoisoindolin-2-yl)butanoyl)-N-(4-morpholinobenzyl)pyrrolidine-2-carboxamide]
4 | – | 33.8 µM | – | – | – | Cc1ncn(C)c1-c1ccc(CNC(=O)[C@@H]2C[C@@H](O)CN2C(=O)[C@H](C(C)C)N2Cc3ccccc3C2=O)cc1 [Example 103, (2S,4R)—N-(4-(1,4-dimethyl-1H-imidazol-5-yl)benzyl)-4-hydroxy-1-((S)-3-methyl-2-(1-oxoisoindolin-2-yl)butanoyl)pyrrolidine-2-carboxamide]
5 | – | 1.64 µM | – | – | – | Cc1ncsc1-c1ccc(CNC(=O)[C@@H]2C[C@@H](O)CN2C(=O)[C@@H](NC(=O)CN)C(C)(C)C)cc1 [Example 125, (2S,4R)-1-((S)-2-(2-aminoacetamido)-3,3-dimethylbutanoyl)-4-hydroxy-N-(4-(4-methylthiazol-5-yl)benzyl)pyrrolidine-2-carboxamide]
6 | – | 1.11 µM | – | – | – | Cc1ncsc1-c1ccc(CNC(=O)[C@@H]2C[C@@H](O)CN2C(=O)[C@@H](NC(=O)CNC(=O)OC(C)(C)C)C(C)(C)C)cc1 [Example 124, tert-butyl 2-((S)-1-((2S,4R)-4-hydroxy-2-(4-(4-methylthiazol-5-yl)benzylcarbamoyl)pyrrolidin-1-yl)-3,3-dimethyl-1-oxobutan-2-ylamino)-2-oxoethylcarbamate]
7 | – | 6.2 µM | – | – | – | CCC[C@H](NC(C)=O)C(=O)N1C[C@H](O)C[C@H]1C(=O)NCc1ccc(-c2scnc2C)cc1 [Example 148, (2S,4R)-1-((S)-2-acetamidopentanoyl)-4-hydroxy-N-(4-(4-methylthiazol-5-yl)benzyl)pyrrolidine-2-carboxamide]
8 | – | 15.5 µM | – | – | – | CO/N=C(/NCc1ccc(-c2scnc2C)cc1)[C@@H]1C[C@@H](O)CN1C(=O)[C@H](C(C)C)N1Cc2ccccc2C1=O [Example 120, (2S,4R,E)-4-hydroxy-N′-methoxy-1-((S)-3-methyl-2-(1-oxoisoindolin-2-yl)butanoyl)-N-(4-(4-methylthiazol-5-yl)benzyl)pyrrolidine-2-carboximidamide]
9 | – | 1.65 µM | – | – | – | CC(C)[C@@H](C(=O)N1C[C@H](O)C[C@H]1C(=O)NCc1ccc(-c2ccnn2C)cc1)N1Cc2ccccc2C1=O [Example 92, (2S,4R)-4-hydroxy-N-(4-(1-methyl-1H-pyrazol-5-yl)benzyl)-1-((S)-3-methyl-2-(1-oxoisoindolin-2-yl)butanoyl)pyrrolidine-2-carboxamide]
10 | – | 37.7 µM | – | – | – | CC[C@H](C)[C@H](NC(C)c1ccccc1)C(=O)N1C[C@H](O)C[C@H]1C(=O)NCc1ccc(-c2scnc2C)cc1 (stereo partly drawn) [Example 105, (2S,4R)-4-hydroxy-1-((2S,3S)-3-methyl-2-(1-phenylethylamino)pentanoyl)-N-(4-(4-methylthiazol-5-yl)benzyl)pyrrolidine-2-carboxamide]

The remaining lines, values behind:

Row | Compound | IC50 (10% in DMSO) | IC50 (1% in DMSO) | IC50 (0.25% in DMSO) | VHL FP Assay IC50 (1% in DMSO) | VHL FP Assay IC50 (10% in DMSO)
11 | Cc1ncsc1-c1ccc(CNC(=O)[C@@H]2C[C@@H](O)CN2C(=O)C2(N3Cc4ccccc4C3=O)CCCC2)cc1 [Example 50, (2S,4R)-4-hydroxy-N-(4-(4-methylthiazol-5-yl)benzyl)-1-(1-(1-oxoisoindolin-2-yl)cyclopentanecarbonyl)pyrrolidine-2-carboxamide] | 235 µM | – | – | – | –
12 | Cc1ncsc1-c1ccc(CNC(=O)[C@@H]2C[C@@H](O)CN2C(=O)C2(N3Cc4ccccc4C3=O)CC2)cc1 [Example 49, (2S,4R)-4-hydroxy-N-(4-(4-methylthiazol-5-yl)benzyl)-1-(1-(1-oxoisoindolin-2-yl)cyclopropanecarbonyl)pyrrolidine-2-carboxamide] | 244 µM | – | – | – | –
13 | Cc1ncsc1-c1ccc(CNC(=O)[C@@H]2C[C@@H](O)CN2C(=O)[C@H](C(C)C)N2Cc3cccc(Cl)c3C2=O)cc1 [Example 7, (2S,4R)-1-((S)-2-(7-cloro-1-oxoisoindolin-2-yl)-3-methylbutanoyl)-4-hydroxy-N-(4-(4-methylthiazol-5-yl)benzyl)pyrrolidine-2-carboxamide] | 8.52 µM | 7.51 µM | – | – | –
14 | Cc1ncsc1-c1ccc(CNC(=O)[C@@H]2C[C@@H](O)CN2C(=O)[C@@H](NC(=O)CCC2CCCCC2)C(C)(C)C)cc1 [Example 20, (2S,4R)-1-((S)-2-(3-cyclohexylpropanamido)-3,3-dimethylbutanoyl)-4-hydroxy-N-(4-(4-methylthiazol-5-yl)benzyl)pyrrolidine-2-carboxamide] | 1.15 µM | 1.05 µM | 4.96 µM | – | –
15 | Cc1ncsc1-c1ccc(CNC(=O)[C@@H]2C[C@@H](O)CN2C(=O)C(C)(C)N2Cc3ccccc3C2=O)cc1 [Example 46, (2S,4R)-4-hydroxy-1-(2-methyl-2-(1-oxoisoindolin-2-yl)propanoyl)-N-(4-(4-methylthiazol-5-yl)benzyl)pyrrolidine-2-carboxamide] | 5100 µM | 19400 µM | – | – | –
16 | Cc1ncsc1-c1ccc(CNC(=O)[C@@H]2C[C@@H](O)CN2C(=O)[C@@H](NC(=O)CCC(C)C)C(C)(C)C)cc1 [Example 28, (2S,4R)-1-((S)-3,3-dimethyl-2-(4-methylpentanamido)butanoyl)-4-hydroxy-N-(4-(4-methylthiazol-5-yl)benzyl)pyrrolidine-2-carboxamide] | 3.6 µM | 2.21 µM | 4.47 µM | – | –
17 | Cc1ncsc1-c1ccc(CNC(=O)[C@@H]2C[C@@H](O)CN2C(=O)[C@@H](N2Cc3ccccc3C2=O)C(C)(C)C)cc1 [Example 65, (2S,4R)-1-((S)-3,3-dimethyl-2-(1-oxoisoindolin-2-yl)butanoyl)-4-hydroxy-N-(4-(4-methylthiazol-5-yl)benzyl)pyrrolidine-2-carboxamide] | 0.578 µM | 0.631 µM | – | – | –
18 | Cc1cnccc1-c1ccc(CNC(=O)[C@@H]2C[C@@H](O)CN2C(=O)[C@H](C(C)C)N2Cc3ccccc3C2=O)cc1 [Example 80, (2S,4R)-4-hydroxy-1-((S)-3-methyl-2-(1-oxoisoindolin-2-yl)butanoyl)-N-(4-(3-methylpyridin-4-yl)benzyl)pyrrolidine-2-carboxamide] | 38.9 µM | 22.4 µM | – | – | –
19 | COCCCc1ccc2c(c1)CN([C@H](C(=O)N1C[C@H](O)C[C@H]1C(=O)NCc1ccc(-c3scnc3C)cc1)C(C)C)C2=O [Example 57, (2S,4R)-4-hydroxy-1-((S)-2-(5-(3-methoxypropyl)-1-oxoisoindolin-2-yl)-3-methylbutanoyl)-N-(4-(4-methylthiazol-5-yl)benzyl)pyrrolidine-2-carboxamide] | 1.41 µM | 0.717 µM | – | – | –
20 | Cc1ncsc1-c1ccc(CNC(=O)[C@@H]2C[C@](C)(O)CN2C(=O)[C@H](C(C)C)N2Cc3ccccc3C2=O)cc1 [Example 62, (2S,4S)-4-hydroxy-4-methyl-1-((S)-3-methyl-2-(1-oxoisoindolin-2-yl)butanoyl)-N-(4-(4-methylthiazol-5-yl)benzyl)pyrrolidine-2-carboxamide] | – | – | – | Not Active | Not Active
21 | Cc1ncsc1-c1ccc(CNC(=O)[C@@H]2C[C@@H](O)CN2C(=O)[C@@H](NC(=O)CC(C)C)C(C)(C)C)cc1 [Example 18, (2S,4R)-1-((S)-3,3-dimethyl-2-(3-methylbutanamido)butanoyl)-4-hydroxy-N-(4-(4-methylthiazol-5-yl)benzyl)pyrrolidine-2-carboxamide] | 2.72 µM | 0.855 µM | 5.5 µM | – | –
22 | Cc1ncsc1-c1ccc(CNC(=O)[C@@H]2C[C@@H](O)CN2C(=O)C2(N3Cc4ccccc4C3=O)CCCCC2)cc1 [Example 54, (2S,4R)-4-hydroxy-N-(4-(4-methylthiazol-5-yl)benzyl)-1-(1-(1-oxoisoindolin-2-yl)cyclohexanecarbonyl)pyrrolidine-2-carboxamide] | 1.21 µM | 0.834 µM | – | – | –
23 | Cc1ncsc1-c1ccc(CNC(=O)[C@@H]2C[C@@H](O)CN2C(=O)[C@H](C(C)C)N2Cc3cccc(F)c3C2=O)cc1 [Example 8, (2S,4R)-1-((S)-2-(7-fluoro-1-oxoisoindolin-2-yl)-3-methylbutanoyl)-4-hydroxy-N-(4-(4-methylthiazol-5-yl)benzyl)pyrrolidine-2-carboxamide] | 1.33 µM | 0.619 µM | 3.04 µM | – | –
24 | Cc1ncsc1-c1ccc(CNC(=O)[C@@H]2C[C@@H](O)CN2C(=O)[C@H](C2CCCC2)N2Cc3ccccc3C2=O)cc1 [Example 38, (2S,4R)-1-((S)-2-cyclopentyl-2-(1-oxoisoindolin-2-yl)acetyl)-4-hydroxy-N-(4-(4-methylthiazol-5-yl)benzyl)pyrrolidine-2-carboxamide] | 1.09 µM | 0.758 µM | 2.19 µM | – | –
25 | Cc1ncsc1-c1ccc(CNC(=O)[C@@H]2C[C@@H](O)CN2C(=O)[C@@H](NC(=O)c2ccccn2)C(C)(C)C)cc1 [Example 78, N—((S)-1-((2S,4R)-4-hydroxy-2-(4-(4-methylthiazol-5-yl)benzylcarbamoyl)pyrrolidin-1-yl)-3,3-dimethyl-1-oxobutan-2-yl)picolinamide] | 0.81 µM | 1.03 µM | – | – | –
26 | CSC[C@@H](C(=O)N1C[C@H](O)C[C@H]1C(=O)NCc1ccc(-c2scnc2C)cc1)N1Cc2ccccc2C1=O [Example 37, (2S,4R)-4-hydroxy-N-(4-(4-methylthiazol-5-yl)benzyl)-1-((R)-3-(methylthio)-2-(1-oxoisoindolin-2-yl)propanoyl)pyrrolidine-2-carboxamide] | 7.41 µM | 20.6 µM | 1.9 µM | – | –

From US10730870B2, “Compounds and methods for the enhanced degradation of targeted proteins” (Arvinas, Inc., priority 2015, dated 2020)
